Test results as given in patent US6911527B1, “HIV related peptides” (The United States of America as represented by the …, priority 1999, dated 2005).

Key:
[1] = system: binding of phagotope-specific antibodies to HIV-1; assay: Displacement of binding of phagotope-specific antibodies to HIV-1 by phagotopes or peptides (ELISA); details: increasing concentrations of peptide
Method: FIG. 3. Phagotope-specific antibodies bind to HIV-1. a, ELISA reactivities of immunoaffinity purified antibodies with HIV-1. Antibodies were immunoaffinity purified from LTNP serum 6090 using single phagotopes as ligands and tested for ELISA reactivity against HIV-1 virions by using a standard ELISA kit (Organon). Purified antibodies were tested at 5-10 ng/ml; HIV-negative (CS) and serum 6090 (HIV-1S) were tested at 1:100 dilution. Data are expressed as mean±SEM of four independent determinations. b, The binding of phagotope-specific antibodies to HIV-1 is specifically displaced by the related phagotopes. ELISA reactivities of single immunopurified antibodies to HIV-I were tested in the presence of the indicated concentrations of p195 (▪), p197 (♦), p217 (●), p287 (▴), p335(▾). […] ELISA reactivities of single immunoaffinity purified antibodies with the related phagotopes were tested in the presence of increasing concentrations of peptides 195 (▪), 197 (▴), 217 (♦), 287 (ρ), 335 (●). d, HIV-1 immunoblotting with phagotope-specific human antibodies. Immunoffinity purified antibodies were tested at 60 ng/ml for binding to HIV-1 proteins in Western blot by a diagnostic kit (Cambridge Biotech.); 6090 LTNP serum was tested at 1:1000 dilution.
The phagotope specific antibodies, purified from serum to IgG concentrations of 5-10 ng/ml, recognized HIV-1 proteins by ELISA (FIG. 3a); this reactivity was specifically displaced by the related phagotopes, but not by wild-type or unrelated phages (FIG. 3b and data not shown).

[2] = system: serum antibodies of HIV-1-infected subjects; assay: ELISA reactivity of phagotopes with human sera (LTNP, AIDS, HIV-negative); assay type: binding; details: for antibody titers to phagotope in sera from LTNPs versus AIDS patients: p<0.05, one-sided Student's t test
Source text: FIG. 1. ELISA reactivities of HIV-specific phagotopes. a, LTNP and AIDS subjects were selected as reported (Pantaleo et al., N. Engl. J Med 332:209 (1995)). HIV-specific phagotopes were identified from RPL pVIII9aa-cys (selection 1), or pVIII9aa (selection 2) by serial steps of screening and phage colony purification as described in the Methods section. Results are expressed as fold increase of the average values of the phagotopes over values of the wild-type phages. Values were considered positive when at least four-fold higher than the background signal of wild-type phage. Average values of at least four independent assays are shown as <4; 4<<10; 10.1<<20; >20. The far right column indicates the recognition frequency of positive sera by each phagotope (f). The percentages of significant phage reactivity in the HIV-positive and control groups were compared using the Fisher Exact Test; p values (p<0.001) were adjusted for multiple testing using the Bonferroni method. b, Comparison of ELISA reactivities of phagotopes with sera of LTNP (hatched bars) versus AIDS subjects (black bars). Data are expressed as mean±SEM of fold increase for each phagotope. Statistical analysis was performed according to the one-sided Student's t test; asterisks indicate p<0.05.
To validate that the bound phagotopes carry HIV-specific epitopes, positive colonies were tested by ELISA for reactivity with sera from multiple HIV-infected individuals and counter-screened with an equivalent number of sera from HIV-negative subjects. For the EJISA analysis, microtiter plates were coated with anti M13 antibody (Pharmacia, Piscataway, N.J.) at 10 μg/ml overnight at 4° C. in coating buffer. Fifty μl of cleared phage supernatant with an equal volume of blocking buffer were incubated for 1 h at 37° C. Plates were washed extensively and supplemented with human serum at 1:100 dilution followed by an overnight incubation at 4° C. After washing, wells were coated with an anti-human (Fc-specific) alkaline phosphatase-conjugated antibody. Plates were washed and developed. Results were expressed as the difference between OD405 nm and OD620 nm by an ELISA reader.

[3] = ELISA reactivities of engineered (modified) peptide epitopes; assay type: binding
Method: The amino acid sequences of modifed peptides generated in this manner are as follows: • P195 analog: […] (SEQ ID NO: 14) • P197 analog: […] (SEQ ID NO:15) • P217 analog: […] (SEQ ID NO:16) • P287 analog: […] (SEQ ID NO: 17) • P335 analog: CSGRLYCHESWC (SEQ ID NO:18) • P54 analog: TKTLIYQGA (SEQ ID NO:19) The engineered eptiopes are then determined to be immunogenic as described in Example 4-6.

[4] = system: sera of SHIV-infected monkeys; assay: ELISA reactivity of monkey sera with HIV-specific phagotopes; assay type: binding, macaques; details: nine SHIV-infected monkeys
Method: FIG. 4. ELISA reactivities of monkey sera with HIV-specific phagotopes. Sera of naive monkeys (SHIV Negative) and SHIV-infected animals were tested for binding to HIV-1 phagotopes. Results are expressed as fold increase of OD405 nm values of tested phagotope over the OD405 nm values of wild-type-phage. Cutoff values were set as detailed in the legend to FIG. 1a. All the pre-infection sera of SHIV-positive animals tested negative by ELISA (not shown). A125, 42C, E50 and AK98 are Rhesus macaques; 4138, 4150 and 79 are cynomologous macaques; these animals were infected with SHIVMD1 (Shibata et al., J. Infect. Dis. 176:362 (1997)). 17860 and 17846 are pigtail macaques infected with SHIVMD14YE (Shibata et al., J. Infect. Dis. 176:362 (1997)).
In order to test this hypothesis, sera of nine SHIV-infected monkeys and of four uninfected control animals were tested for ELISA reactivity with the pool of HIV mimotopes. As in the case of HIV-1 infected subjects (FIG. 1a), sera of SHIV-infected monkeys recognized the HIV-1 phagotopes with variable frequencies (FIG. 4).

Sequence	displacement of antibody binding to HIV-1 by peptides in solution [1]	ELISA reactivities compared with the original peptides displayed on the phagotopes [3]	further results
CCGCLTCSV [compound 287]	Only a partial competition	–	–
CNGRLYCGP [p217]	–	–	recognition frequency (f) of positive sera by phagotope ([2]; 22 LTNP sera and 25 AIDS sera, serum 1:100, positive = at least four-fold over wild-type phage): 23%; antibody titers to phagotope in sera from LTNPs versus AIDS patients [2]: significantly higher in sera from LTNPs; ELISA reactivity with AIDS sera ([2]; pool of AIDS sera): completely unreactive
CNGRLYCGP [peptide 217]	Only a partial competition	–	–
CSGRLYCHESWC [P335 analog]	–	similar	–
EGEFCCAGQLTCSVCGDPAK [P287 analog]	–	similar	–
EGEFCCNGRLYCQPCGDPAK [P217 analog]	–	similar	–
EGEFCKSSGKLISLCGDPAK [P195 analog]	–	similar	–
EGEFCQTKLVCFAAAGDPAK [P197 analog]	–	similar	–
GTKLVCFAA [compound 197]	effectively displaced	–	–
KSSGKLISL [compound 195]	effectively displaced	–	–
SGRLYCHESW [compound 335]	effectively displaced	–	–
SGRLYCHESW [p335]	–	–	antibody titers to phagotope in sera from LTNPs versus AIDS patients [2]: significantly higher in sera from LTNPs
TKTLIYGGA [p54]	–	–	ELISA reactivity with sera of SHIV-infected monkeys [4]: certain SHIV sera recognized
TKTLIYQGA [P54 analog]	–	similar	–
